Experimental data reported in patent US5698515A, “Insulin-containing polymer composition for oral administration” (Institut Neftekhimicheskogo Sinteza Imeni A.V.Topchieva …, priority 1994, dated 1997).

What was measured:
[1] = test system: white rats with experimental diabetes (streptozotocin); assay: Blood glucose in rats with streptozotocin-induced experimental diabetes; assay type: in vivo; settings: diabetic rat, p.e. (subcutaneously), ± 8%
Method: Experimental diabetes is obtained (induced) in white rats of […], weighing 180 g., by way of intraperitoneally administered streptozotocin in the amount of 70 mg. for 1 kg. of weight. Synthesized polymers began to be introduced after the glucose level has exceeded 400 mg. %.
The procedure is conducted according to Example 12 with an equal amount of insulin administered subcutaneously in the form of solution.

rabbits [2] = assay: Glucose concentration in blood of rabbits after oral administration of insulin hydrogels; assay type: in vivo; settings: rabbit, orally, ± 8%
Method: 0.1 g. of a pre-dried crosslinked polyacrylamide, modified with ovomucoid, is placed in 1 ml. of an aqueous solution of insulin (insulin activity is 25 U/mg.) with a concentration of 1.0 mg./ml. per hour at room temperature. During this time limit the polymer swells completely and is ready to use. The synthesized hydrogel in an amount corresponding to 5 units of insulin per kg. of animal weight is administered to rabbits orally, using a catheter. Blood samples are collected after 30, 60, 90 and 120 minutes.
The procedure is conducted according to Example 1 using various crosslinked modified polymers, various concentrations of the insulin solution, various quantities of the cross-linked modified polymers and various amounts of ovomucoid.
The procedure is conducted according to Example 1 but using a nonmodified polyacrylamide hydrogel.
Rabbits are treated orally with an insulin solution in an amount of 7 U/kg. of animal weight, a mixture of ovomucoid (2.5 mg./kg. weight) and insulin (8 U/kg) or a modified hydrogel (200 mg./kg. weight).

rabbits [3] = settings: subcutaneous injection, 0.23 units of insulin, cited from earlier work

## 14k: Control: porcine insulin solution administered subcutaneously to rats [Example 14k]
[1]; 0 min
  Glucose Conc. in Blood: 400 Mg./100 ml.
[1]; 30 min after administration
  Glucose Conc. in Blood: 160 Mg./100 ml.
[1]; 60 min after administration
  Glucose Conc. in Blood: 145 Mg./100 ml.
[1]; 90 min after administration
  Glucose Conc. in Blood: 150 Mg./100 ml.

## 15k: Control: porcine insulin solution given orally to rabbits, 7 U/kg [Example 15k]
Rabbits [2]; 0 min (start), 5 U insulin/kg in Ex. 1 (Ex. 15: 7 U/kg; Ex. 16: 8 U/kg + ovomucoid 2.5 mg/kg; Ex. 17: 200 mg/kg hydrogel)
  Glucose Conc. in Blood: 152 Mg./100 ml.
Rabbits [2]; 30 min after administration
  Glucose Conc. in Blood: 151 Mg./100 ml.
Rabbits [2]; 60 min after administration
  Glucose Conc. in Blood: 150 Mg./100 ml.
Rabbits [2]; 90 min after administration
  Glucose Conc. in Blood: 160 Mg./100 ml.

## insulin
Rabbits [3]; 150 min. after the injection
  glucose concentration in blood: 120 mg./100 ml.
  reduction of glucose concentration in blood: 74%
Rabbits [3]; before
  glucose concentration in blood, initial: 330 mg./100 ml.
